In publication PMC4415393, “Immobilized laccase mediated dye decolorization and transformation pathway of azo dye acid red 27” (Journal of Environmental Health Science and Engineering, 2015):

Key:
[1] = target: T1, PVA-nitrate immobilized laccase (Cyathus bulleri, UniProt A8W7J6); experiment: Laccase assay with inhibitors and ABTS kinetics, immobilized enzyme; format: biochemical; conditions: 1 h pre-incubation
T1 sequence (A8W7J6 17-513): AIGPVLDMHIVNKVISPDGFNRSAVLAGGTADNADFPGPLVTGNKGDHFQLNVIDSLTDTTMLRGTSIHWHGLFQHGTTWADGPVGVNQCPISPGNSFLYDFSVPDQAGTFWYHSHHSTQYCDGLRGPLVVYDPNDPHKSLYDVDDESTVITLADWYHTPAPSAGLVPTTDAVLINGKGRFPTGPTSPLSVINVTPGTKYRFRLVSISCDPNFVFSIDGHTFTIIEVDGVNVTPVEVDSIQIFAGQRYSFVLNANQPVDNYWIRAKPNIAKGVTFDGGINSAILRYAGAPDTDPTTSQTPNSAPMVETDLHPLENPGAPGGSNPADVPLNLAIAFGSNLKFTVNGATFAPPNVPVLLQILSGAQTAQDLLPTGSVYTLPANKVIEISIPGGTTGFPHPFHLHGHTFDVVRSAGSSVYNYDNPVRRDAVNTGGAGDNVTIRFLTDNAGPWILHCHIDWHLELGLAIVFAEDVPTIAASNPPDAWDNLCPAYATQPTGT

Free laccase = target: T2, Free laccase (Cyathus bulleri, UniProt A8W7J6); experiment: Laccase assay with inhibitors and ABTS kinetics, free enzyme; format: biochemical; conditions: 1 h pre-incubation
T2 sequence (A8W7J6 17-513): T1 sequence (A8W7J6 17-513)

[N-]=[N+]=[N-] [sodium azide]
IC50 [1]: 6 ± 0.3 µM | IC50 (Free laccase): 5 ± 0.5 µM
